The text below walks through data of ChEMBL document CHEMBL6121021, “Design and Synthesis of Topoisomerases-Histone Deacetylase Dual Targeted Quinoline-Bridged Hydroxamates as Anticancer Agents” (J Med Chem, 2025).

Each structure is given as a SMILES string. Active and inactive are the calls of the source. The calls are words filed in the database; no cut-off is given here.

Data set [1] concerns A549. Briefly: Induction of apoptosis in human A549 cells by Annexin-V/PI staining based flow cytometry. The data set is classed as functional, cell-based. A general note: In flow cytometry, cells or beads pass a laser one at a time.
For data set [2], the target named is T1, Protein deacetylase HDAC6 (Homo sapiens, UniProt Q9UBN7).
T1 sequence (Q9UBN7 whole entry): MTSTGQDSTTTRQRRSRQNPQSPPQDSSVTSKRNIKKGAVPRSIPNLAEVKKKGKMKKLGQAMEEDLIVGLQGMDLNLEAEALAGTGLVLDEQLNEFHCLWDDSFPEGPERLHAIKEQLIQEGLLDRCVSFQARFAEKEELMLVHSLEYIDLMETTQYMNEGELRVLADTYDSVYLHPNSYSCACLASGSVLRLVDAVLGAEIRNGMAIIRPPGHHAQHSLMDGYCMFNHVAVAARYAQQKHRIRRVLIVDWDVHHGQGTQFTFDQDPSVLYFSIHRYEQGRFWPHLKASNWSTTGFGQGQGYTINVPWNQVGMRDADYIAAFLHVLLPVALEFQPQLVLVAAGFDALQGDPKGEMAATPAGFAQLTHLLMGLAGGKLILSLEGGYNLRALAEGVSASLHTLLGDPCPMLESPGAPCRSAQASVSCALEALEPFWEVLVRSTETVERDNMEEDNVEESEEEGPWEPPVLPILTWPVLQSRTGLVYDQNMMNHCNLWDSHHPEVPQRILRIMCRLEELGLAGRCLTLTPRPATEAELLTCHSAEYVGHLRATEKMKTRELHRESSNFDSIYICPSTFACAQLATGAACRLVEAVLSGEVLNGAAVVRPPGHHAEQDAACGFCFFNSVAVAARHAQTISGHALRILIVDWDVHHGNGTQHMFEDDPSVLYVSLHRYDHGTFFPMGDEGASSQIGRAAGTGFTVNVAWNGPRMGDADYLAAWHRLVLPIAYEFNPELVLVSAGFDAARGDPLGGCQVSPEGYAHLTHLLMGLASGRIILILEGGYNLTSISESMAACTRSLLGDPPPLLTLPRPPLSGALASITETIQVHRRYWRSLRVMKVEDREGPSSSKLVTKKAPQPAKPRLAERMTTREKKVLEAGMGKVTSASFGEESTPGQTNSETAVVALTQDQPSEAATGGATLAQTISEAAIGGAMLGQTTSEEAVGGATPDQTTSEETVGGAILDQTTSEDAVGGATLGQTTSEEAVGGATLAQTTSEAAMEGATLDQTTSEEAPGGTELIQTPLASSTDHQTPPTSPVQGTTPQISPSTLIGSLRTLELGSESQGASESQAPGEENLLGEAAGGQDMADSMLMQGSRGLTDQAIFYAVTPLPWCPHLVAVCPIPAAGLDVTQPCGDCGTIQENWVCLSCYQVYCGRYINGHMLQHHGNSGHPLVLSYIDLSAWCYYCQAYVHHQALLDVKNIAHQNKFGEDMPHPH
Briefly: Inhibition of HDAC6 (unknown origin) using acetylated-peptide substrate by fluorometric assay.

The subject of data set [3] is MDA-MB-231. Briefly: Anti-cancer activity against human MDA-MB-231 cells assessed as decrease in p21 level at 1 to 10 uM incubated for 48 hrs by immunoblot analysis. The data set is classed as functional, cell-based. As to conditions: dose 1-10 µM. (In general: In western blotting, separated proteins are transferred to a membrane and probed.)
The test system of data set [4] is A549. Briefly: In vivo induction of apoptosis in human A549 cells xenografted in athymic nude Crl:NU-Foxn1nu mouse assessed as increase in Bcl-2 level at 30 mg/kg, po administered twice a week for 1 month by immunoblot analysis. As to conditions: time 1.0 months. Format: functional, organism-based. (In xenograft studies the graft and the host belong to different species.)

Data set [5] in a line: Metabolic stability in mouse hepatocytes assessed as half life at 2 uM measured upto 120 min by LC-MS/MS analysis. The data set is classed as ADME, cell-based, Hepatocyte.
The nature of data set [6]: Metabolic stability in human hepatocytes assessed as hepatic clearance at 2 uM measured upto 120 min by LC-MS/MS analysis. The data set is classed as ADME, cell-based, Hepatocyte.
Data set [7] has as its system H9c2. Briefly: Antiproliferative activity against rat H9c2 cells at 10 uM by JC-1 staining based analysis. The data set is classed as toxicity, cell-based. As to conditions: h9c2, 10 µM.
Data set [8] can be described thus: Drug metabolism in human hepatocytes assessed as glucuronide conjugated M8 metabolite formation at 10 uM by LC-MS/MS analysis. The data set is classed as ADME, cell-based, Hepatocyte.
Data set [9] concerns MDA-MB-231. Put plainly: Anti-cancer activity against human MDA-MB-231 cells assessed as decrease in CDK-4 level at 1 to 10 uM incubated for 48 hrs by immunoblot analysis. Format: functional, cell-based. The conditions noted are these: dose 1-10 µM.
The target in data set [10] is Cytochrome P450 1A2 (Homo sapiens, UniProt P05177). Put plainly: Inhibition of CYP1A2 in human liver microsomes preincubated for 10 mins followed by NADPH addition measured after 5 mins by LC-MS/MS analysis. Format: ADME, Microsome.
Cytochrome P450 1A2, sequence (P05177 whole entry): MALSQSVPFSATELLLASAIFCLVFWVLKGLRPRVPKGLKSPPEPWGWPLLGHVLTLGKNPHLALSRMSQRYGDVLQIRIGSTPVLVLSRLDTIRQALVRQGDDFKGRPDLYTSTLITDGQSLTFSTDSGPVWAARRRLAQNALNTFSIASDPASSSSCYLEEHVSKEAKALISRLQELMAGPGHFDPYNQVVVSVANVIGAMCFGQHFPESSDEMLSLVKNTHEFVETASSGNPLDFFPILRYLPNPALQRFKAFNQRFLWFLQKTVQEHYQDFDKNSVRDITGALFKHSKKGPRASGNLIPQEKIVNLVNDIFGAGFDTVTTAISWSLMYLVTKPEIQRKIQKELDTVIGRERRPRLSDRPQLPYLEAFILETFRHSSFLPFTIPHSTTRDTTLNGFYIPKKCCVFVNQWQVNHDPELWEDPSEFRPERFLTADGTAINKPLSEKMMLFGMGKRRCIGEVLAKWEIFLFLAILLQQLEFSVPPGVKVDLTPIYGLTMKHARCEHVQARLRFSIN
Data set [11] deals with A549. Briefly: Antitumor activity against human A549 cells xenografted in athymic nude Crl:NU-Foxn1nu mouse assessed as tumor regression at 30 mg/kg, po administered twice a week for 1 month. As to conditions: time 1.0 months. The data set is classed as functional, organism-based.
Data set [12] in a line: Drug metabolism in human hepatocytes assessed as formation of O-demethylated M6 metabolite conjugated with sulphate at 10 uM by LC-MS/MS analysis. Format: ADME, cell-based, Hepatocyte.
For data set [13], the target named is Histone deacetylase 2 (Homo sapiens, UniProt Q92769).
Histone deacetylase 2, sequence (Q92769 whole entry): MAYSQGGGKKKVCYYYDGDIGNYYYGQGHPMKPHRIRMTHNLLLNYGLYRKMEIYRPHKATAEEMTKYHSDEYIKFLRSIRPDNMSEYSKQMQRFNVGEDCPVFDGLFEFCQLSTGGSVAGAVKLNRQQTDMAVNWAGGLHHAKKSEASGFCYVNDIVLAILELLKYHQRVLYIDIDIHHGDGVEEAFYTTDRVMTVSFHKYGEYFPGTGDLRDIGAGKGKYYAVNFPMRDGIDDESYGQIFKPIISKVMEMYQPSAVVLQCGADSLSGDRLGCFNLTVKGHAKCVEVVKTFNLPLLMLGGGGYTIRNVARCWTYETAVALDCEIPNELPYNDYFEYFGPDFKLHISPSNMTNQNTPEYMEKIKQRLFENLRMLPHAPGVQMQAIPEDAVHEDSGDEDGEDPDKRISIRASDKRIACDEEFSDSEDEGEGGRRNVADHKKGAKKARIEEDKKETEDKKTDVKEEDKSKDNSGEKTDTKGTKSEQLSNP
A short description of data set [14]: Drug metabolism in human hepatocytes assessed as demethylation M6 metabolite formation at 10 uM by LC-MS/MS analysis. Format: ADME, cell-based, Hepatocyte.
Data set [15] concerns A549. Briefly: In vivo cytotoxicity against human A549 cells xenografted in athymic nude Crl:NU-Foxn1nu mouse at 15 to 30 mg/kg, po administered twice a week for 1 month. As to conditions: dose 15-30 mg/kg, time 1.0 months. Format: functional, organism-based.
The nature of data set [16]: Drug metabolism in human hepatocytes assessed as direct glucuronide conjugate M9 metabolite formation at 10 uM by LC-MS/MS analysis. The data set is classed as ADME, cell-based, Hepatocyte.
Data set [17] can be described thus: Metabolic stability in human hepatocytes assessed as half life at 2 uM measured upto 120 min by LC-MS/MS analysis. Format: ADME, cell-based, Hepatocyte.
Data set [18] deals with Histone deacetylase 3/Nuclear receptor corepressor 2 (HDAC3/NCoR2) (Homo sapiens, UniProt O15379). Put plainly: Inhibition of His/GST-tagged recombinant human HDAC3/NcoR2 by fluorogenic assay. The data set is classed as protein-complex assay.
Histone deacetylase 3/Nuclear receptor corepressor 2 (HDAC3/NCoR2), sequence (O15379 whole entry): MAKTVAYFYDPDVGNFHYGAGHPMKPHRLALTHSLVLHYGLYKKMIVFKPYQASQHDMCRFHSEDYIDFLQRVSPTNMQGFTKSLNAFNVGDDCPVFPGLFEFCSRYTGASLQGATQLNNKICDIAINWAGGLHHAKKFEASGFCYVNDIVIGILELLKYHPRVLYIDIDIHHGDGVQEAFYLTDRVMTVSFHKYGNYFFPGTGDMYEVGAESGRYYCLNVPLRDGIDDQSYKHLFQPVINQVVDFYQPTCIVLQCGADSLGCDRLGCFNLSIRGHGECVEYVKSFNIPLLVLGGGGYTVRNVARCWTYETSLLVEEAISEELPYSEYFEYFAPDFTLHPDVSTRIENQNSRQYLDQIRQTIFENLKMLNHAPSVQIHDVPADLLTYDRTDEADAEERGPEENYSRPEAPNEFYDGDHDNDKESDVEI
Histone deacetylase 3/Nuclear receptor corepressor 2 (HDAC3/NCoR2), sequence (Q9Y618 whole entry, further chain): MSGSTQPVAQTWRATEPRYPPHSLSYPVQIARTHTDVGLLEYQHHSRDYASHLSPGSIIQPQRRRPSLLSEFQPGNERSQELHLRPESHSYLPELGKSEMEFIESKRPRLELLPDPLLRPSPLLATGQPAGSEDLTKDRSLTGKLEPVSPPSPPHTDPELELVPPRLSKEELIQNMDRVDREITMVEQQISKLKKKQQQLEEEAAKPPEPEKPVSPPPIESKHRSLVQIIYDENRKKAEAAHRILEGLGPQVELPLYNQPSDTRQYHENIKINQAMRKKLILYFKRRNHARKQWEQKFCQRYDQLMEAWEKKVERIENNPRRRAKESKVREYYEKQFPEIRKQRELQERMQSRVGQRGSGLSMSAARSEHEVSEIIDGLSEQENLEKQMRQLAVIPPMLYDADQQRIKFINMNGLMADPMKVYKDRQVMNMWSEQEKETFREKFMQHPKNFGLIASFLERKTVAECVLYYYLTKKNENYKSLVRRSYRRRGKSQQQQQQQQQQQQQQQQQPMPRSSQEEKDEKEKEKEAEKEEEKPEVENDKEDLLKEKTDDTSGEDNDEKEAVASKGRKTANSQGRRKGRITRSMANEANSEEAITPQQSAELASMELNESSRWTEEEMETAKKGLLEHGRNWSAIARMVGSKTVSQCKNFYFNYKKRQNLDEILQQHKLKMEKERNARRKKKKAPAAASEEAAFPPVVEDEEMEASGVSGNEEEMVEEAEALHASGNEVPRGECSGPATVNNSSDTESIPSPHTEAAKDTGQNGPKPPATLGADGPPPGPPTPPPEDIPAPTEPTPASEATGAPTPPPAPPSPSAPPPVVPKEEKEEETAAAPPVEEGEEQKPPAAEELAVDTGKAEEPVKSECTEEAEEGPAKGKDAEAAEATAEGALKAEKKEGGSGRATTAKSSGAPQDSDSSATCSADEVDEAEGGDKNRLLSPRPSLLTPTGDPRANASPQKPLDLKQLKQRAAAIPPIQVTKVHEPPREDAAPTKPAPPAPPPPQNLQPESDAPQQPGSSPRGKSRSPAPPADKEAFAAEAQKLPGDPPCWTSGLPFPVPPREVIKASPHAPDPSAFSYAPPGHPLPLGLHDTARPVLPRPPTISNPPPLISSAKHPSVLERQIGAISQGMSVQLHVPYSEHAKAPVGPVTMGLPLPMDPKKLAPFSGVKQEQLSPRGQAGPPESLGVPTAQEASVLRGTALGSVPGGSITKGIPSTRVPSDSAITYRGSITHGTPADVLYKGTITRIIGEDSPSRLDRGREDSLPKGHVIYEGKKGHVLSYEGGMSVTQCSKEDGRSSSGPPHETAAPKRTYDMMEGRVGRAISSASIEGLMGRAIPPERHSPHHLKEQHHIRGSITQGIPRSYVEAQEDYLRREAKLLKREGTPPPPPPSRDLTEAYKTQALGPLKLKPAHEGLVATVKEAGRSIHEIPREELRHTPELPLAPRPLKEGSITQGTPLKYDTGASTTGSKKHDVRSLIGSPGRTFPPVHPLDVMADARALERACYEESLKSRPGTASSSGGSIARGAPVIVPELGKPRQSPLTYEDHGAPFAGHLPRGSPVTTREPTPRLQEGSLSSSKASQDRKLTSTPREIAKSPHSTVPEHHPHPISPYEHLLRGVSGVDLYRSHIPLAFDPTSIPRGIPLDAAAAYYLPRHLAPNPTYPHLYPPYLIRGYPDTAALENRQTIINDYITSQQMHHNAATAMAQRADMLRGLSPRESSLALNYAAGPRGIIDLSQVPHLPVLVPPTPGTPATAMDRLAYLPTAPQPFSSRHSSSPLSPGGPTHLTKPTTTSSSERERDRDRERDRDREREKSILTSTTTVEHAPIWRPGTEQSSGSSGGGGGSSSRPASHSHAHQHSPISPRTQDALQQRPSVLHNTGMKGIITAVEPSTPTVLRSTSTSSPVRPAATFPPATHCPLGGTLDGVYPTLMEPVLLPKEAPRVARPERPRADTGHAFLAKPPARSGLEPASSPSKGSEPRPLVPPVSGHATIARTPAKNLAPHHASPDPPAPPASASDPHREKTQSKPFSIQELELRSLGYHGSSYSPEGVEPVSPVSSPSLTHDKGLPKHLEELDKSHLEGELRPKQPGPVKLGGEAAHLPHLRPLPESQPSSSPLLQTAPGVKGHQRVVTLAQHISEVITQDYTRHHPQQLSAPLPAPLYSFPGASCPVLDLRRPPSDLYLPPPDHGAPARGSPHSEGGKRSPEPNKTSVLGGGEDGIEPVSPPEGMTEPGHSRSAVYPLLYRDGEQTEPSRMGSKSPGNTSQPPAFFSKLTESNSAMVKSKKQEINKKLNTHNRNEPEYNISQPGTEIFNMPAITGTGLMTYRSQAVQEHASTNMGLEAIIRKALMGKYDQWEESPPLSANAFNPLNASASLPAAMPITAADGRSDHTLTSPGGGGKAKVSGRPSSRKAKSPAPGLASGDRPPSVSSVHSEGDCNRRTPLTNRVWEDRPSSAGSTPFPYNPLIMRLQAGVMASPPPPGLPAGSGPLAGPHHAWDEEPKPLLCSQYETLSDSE
Data set [19] deals with A549. Briefly: Antitumor activity against human A549 cells xenografted in athymic nude Crl:NU-Foxn1nu mouse assessed as decrease in tumor size at 15 to 30 mg/kg, po administered twice a week for 1 month. Format: functional, organism-based. The conditions noted are these: dose 15-30 mg/kg, time 1.0 months.
The subject of data set [20] is A549. Put plainly: In vivo inhibition of epithelial-mesenchymal transition in human A549 cells xenografted in athymic nude Crl:NU-Foxn1nu mouse assessed as decrease in Twist mRNA level at 30 mg/kg, po administered twice a week for 1 month by qPCR analysis. Format: functional, organism-based. As to conditions: time 1.0 months.
In data set [21] the test system is MDA-MB-231. Briefly: Anti-cancer activity against human MDA-MB-231 cells assessed as decrease in PCNA level incubated for 48 hrs by immunoblot analysis. Format: functional, cell-based. The conditions noted are these: dose 1-10 µM.
In data set [22] the target is Polyamine deacetylase HDAC10 (Homo sapiens, UniProt Q969S8). Briefly: Inhibition of N-terminal FLAG-tagged recombinant human HDAC10 (2 to 631 residues) extracted from baculovirus infected Sf9 cells by fluorogenic assay.
Polyamine deacetylase HDAC10, sequence (Q969S8 whole entry, the tested form may be a part): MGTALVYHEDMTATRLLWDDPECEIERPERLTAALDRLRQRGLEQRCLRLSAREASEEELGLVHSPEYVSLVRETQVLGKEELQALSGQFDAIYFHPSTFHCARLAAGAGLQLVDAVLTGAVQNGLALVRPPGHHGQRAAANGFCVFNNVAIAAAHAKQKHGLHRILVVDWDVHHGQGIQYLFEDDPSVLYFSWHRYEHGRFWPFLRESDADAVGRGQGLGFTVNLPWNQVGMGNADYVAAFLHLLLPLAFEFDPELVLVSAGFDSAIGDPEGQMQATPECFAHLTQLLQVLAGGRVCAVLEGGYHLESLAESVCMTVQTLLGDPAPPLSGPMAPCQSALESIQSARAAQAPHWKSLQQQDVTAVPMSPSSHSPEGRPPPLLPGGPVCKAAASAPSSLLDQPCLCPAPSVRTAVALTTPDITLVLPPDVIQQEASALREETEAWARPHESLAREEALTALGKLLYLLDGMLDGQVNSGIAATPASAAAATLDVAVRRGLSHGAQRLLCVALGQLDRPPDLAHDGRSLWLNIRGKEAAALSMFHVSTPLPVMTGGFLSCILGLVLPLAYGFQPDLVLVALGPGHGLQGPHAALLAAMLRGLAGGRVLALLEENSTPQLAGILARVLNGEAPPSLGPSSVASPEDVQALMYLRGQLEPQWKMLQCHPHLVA
The target of data set [23] is Histone deacetylase 11 (Homo sapiens, UniProt Q96DB2). Briefly: Inhibition of recombinant human HDAC11 by fluorogenic assay.
Histone deacetylase 11, sequence (Q96DB2 whole entry): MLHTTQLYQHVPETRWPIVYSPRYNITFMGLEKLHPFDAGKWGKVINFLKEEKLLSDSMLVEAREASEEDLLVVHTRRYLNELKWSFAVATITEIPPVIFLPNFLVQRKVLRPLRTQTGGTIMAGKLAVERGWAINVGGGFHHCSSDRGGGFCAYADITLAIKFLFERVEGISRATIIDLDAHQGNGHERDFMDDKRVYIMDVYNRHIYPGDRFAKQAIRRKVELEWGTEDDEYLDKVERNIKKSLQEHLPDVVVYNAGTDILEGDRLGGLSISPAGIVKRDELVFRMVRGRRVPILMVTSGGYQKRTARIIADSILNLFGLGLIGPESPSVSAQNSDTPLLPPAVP
A short description of data set [24]: Drug metabolism in human hepatocytes assessed as beta-oxidation M2 metabolite formation at 10 uM by LC-MS/MS analysis. The data set is classed as ADME, cell-based, Hepatocyte.
Data set [25] can be described thus: Drug metabolism in human hepatocytes assessed as oxidative deamination M1 metabolite formation at 10 uM by LC-MS/MS analysis. The data set is classed as ADME, cell-based, Hepatocyte.

By IC50 is commonly meant the concentration that gives 50% inhibition. The half-life is how long it takes for the measured level to halve.

For the compound `COc1ccc(-c2ccc3ccc(OCCCCCCC(=O)NO)cc3n2)cc1I`, the result in data set [1] was Active. In data set [2], this compound returned an IC50 of 0.137 µM.

With `COc1ccc(-c2ccc3cc(OCCCCCC(=O)NO)ccc3n2)cc1`, the result in data set [3], in data set [4], in data set [9], in [15] and in data set [19] was Active. In addition, the half-life at 2 µM was 74.3 min in [5] and 45.7 min in [17]. For the same compound, the CLhep predicted at 2 µM in [6] was 0.841 L/h/kg. The Activity entry is “Non-toxic” in data set [7], “Active; Exerted Maximum Effect” in data set [11] and “Dose-dependent-effect” in data set [21]. Further, the Drug metabolism entry in data set [8], in data set [12], in [14], in data set [16], in data set [24] and in [25] was “metabolite_detected” in each case. In addition, the 50% inhibitory concentration (IC50) was found to be 4.42 µM in data set [10]; 0.0774 µM in data set [13]; 0.0883 µM in data set [18]; 0.0871 µM in data set [22]; 0.0581 µM in data set [23]; 0.0229 µM in [2]. The inhibition entry in [20] is “Active”.
